Data reported in ChEMBL document CHEMBL1687752, “Impact of antifungal prophylaxis on colonization and azole susceptibility of Candida species” (2009).
Converted amounts (≈) assume the structure as drawn.

System: Nakaseomyces glabratus
Assay: Antifungal activity against Candida glabrata isolated from HSCT recipient 497 with acute or chronic GVHD mouth receiving antifungal drug after 114 days prophylaxis by broth microdilution method
Type: functional
Conditions: not given

Compound	MIC [µg/mL]
CC[C@@H]([C@H](C)O)n1ncn(-c2ccc(N3CCN(c4ccc(OC[C@@H]5CO[C@@](Cn6cncn6)(c6ccc(F)cc6F)C5)cc4)CC3)cc2)c1=O [POSACONAZOLE]	2 (≈ 2.85 µM)

System: Candida albicans
Assay: Antifungal activity against Candida albicans isolated from HSCT recipient 928 with acute or chronic GVHD mouth after 112 days prophylaxis by broth microdilution method
Type: functional
Conditions: not given

Compound	MIC [µg/mL]
CC[C@@H]([C@H](C)O)n1ncn(-c2ccc(N3CCN(c4ccc(OC[C@@H]5CO[C@@](Cn6cncn6)(c6ccc(F)cc6F)C5)cc4)CC3)cc2)c1=O [POSACONAZOLE]	< 0.015

System: Candida albicans
Assay: Antifungal activity against Candida albicans isolated from HSCT recipients with acute or chronic GVHD prior to initiation of fluconazole therapy assessed as maximum MIC by broth microdilution method
Type: functional
Conditions: not given

Compound	MIC [µg/mL]
CC[C@@H]([C@H](C)O)n1ncn(-c2ccc(N3CCN(c4ccc(OC[C@@H]5CO[C@@](Cn6cncn6)(c6ccc(F)cc6F)C5)cc4)CC3)cc2)c1=O [POSACONAZOLE]	0.06

System: Nakaseomyces glabratus
Assay: Antifungal activity against Candida glabrata isolated from neutropenic subject 1187 with AML or MDS stool after 22 days prophylaxis by broth microdilution method
Type: functional
Conditions: 528 h

Compound	MIC [µg/mL]
CC[C@@H]([C@H](C)O)n1ncn(-c2ccc(N3CCN(c4ccc(OC[C@@H]5CO[C@@](Cn6cncn6)(c6ccc(F)cc6F)C5)cc4)CC3)cc2)c1=O [POSACONAZOLE]	0.5 (≈ 0.713 µM)

System: Pichia kudriavzevii
Assay: Antifungal activity against 1 day cultured Candida krusei isolated from neutropenic subject with AML or MDS pharynx receiving antifungal therapy for 19 days after 6 days of prophylaxis by broth microdilution method
Type: functional
Conditions: not given

Compound	MIC [µg/mL]
CC[C@@H]([C@H](C)O)n1ncn(-c2ccc(N3CCN(c4ccc(OC[C@@H]5CO[C@@](Cn6cncn6)(c6ccc(F)cc6F)C5)cc4)CC3)cc2)c1=O [POSACONAZOLE]	0.06 (≈ 0.0856 µM)

System: Nakaseomyces glabratus
Assay: Antifungal activity against 16 days cultured Candida glabrata isolated from HSCT recipient with acute or chronic GVHD mouth receiving antifungal therapy for 31 days after 28 days of prophylaxis by broth microdilution method
Type: functional
Conditions: not given

Compound	MIC [µg/mL]
CC[C@@H]([C@H](C)O)n1ncn(-c2ccc(N3CCN(c4ccc(OC[C@@H]5CO[C@@](Cn6cncn6)(c6ccc(F)cc6F)C5)cc4)CC3)cc2)c1=O [POSACONAZOLE]	< 0.5

System: Nakaseomyces glabratus
Assay: Antifungal activity against 62 days cultured Candida glabrata isolated from HSCT recipient with acute or chronic GVHD mouth receiving antifungal therapy for 143 days after 116 days of prophylaxis by broth microdilution method
Type: functional
Conditions: not given

Compound	MIC [µg/mL]
CC[C@@H]([C@H](C)O)n1ncn(-c2ccc(N3CCN(c4ccc(OC[C@@H]5CO[C@@](Cn6cncn6)(c6ccc(F)cc6F)C5)cc4)CC3)cc2)c1=O [POSACONAZOLE]	4 (≈ 5.71 µM)

System: Candida albicans
Assay: Antifungal activity against Candida albicans isolated from HSCT recipients with acute or chronic GVHD receiving posaconazole assessed as maximum MIC by broth microdilution method
Type: functional
Conditions: not given

Compound	MIC [µg/mL]
CC[C@@H]([C@H](C)O)n1ncn(-c2ccc(N3CCN(c4ccc(OC[C@@H]5CO[C@@](Cn6cncn6)(c6ccc(F)cc6F)C5)cc4)CC3)cc2)c1=O [POSACONAZOLE]	0.25

System: Candida tropicalis
Assay: Antifungal activity against 2 days cultured Candida tropicalis isolated from neutropenic subject with AML or MDS stool receiving antifungal therapy for 45 days after 24 days of prophylaxis by broth microdilution method
Type: functional
Conditions: not given

Compound	MIC [µg/mL]
CC[C@@H]([C@H](C)O)n1ncn(-c2ccc(N3CCN(c4ccc(OC[C@@H]5CO[C@@](Cn6cncn6)(c6ccc(F)cc6F)C5)cc4)CC3)cc2)c1=O [POSACONAZOLE]	< 0.015

System: Nakaseomyces glabratus
Assay: Antifungal activity against Candida glabrata isolated from neutropenic subject 1102 with AML or MDS stool after 26 days prophylaxis by broth microdilution method
Type: functional
Conditions: 624 h

Compound	MIC [µg/mL]
CC[C@@H]([C@H](C)O)n1ncn(-c2ccc(N3CCN(c4ccc(OC[C@@H]5CO[C@@](Cn6cncn6)(c6ccc(F)cc6F)C5)cc4)CC3)cc2)c1=O [POSACONAZOLE]	0.25 (≈ 0.357 µM)

System: Pichia kudriavzevii
Assay: Antifungal activity against Candida krusei isolated from HSCT recipients with acute or chronic GVHD receiving fluconazole assessed as maximum MIC by broth microdilution method
Type: functional
Conditions: not given

Compound	MIC [µg/mL]
CC[C@@H]([C@H](C)O)n1ncn(-c2ccc(N3CCN(c4ccc(OC[C@@H]5CO[C@@](Cn6cncn6)(c6ccc(F)cc6F)C5)cc4)CC3)cc2)c1=O [POSACONAZOLE]	1

System: Nakaseomyces glabratus
Assay: Antifungal activity against Candida glabrata isolated from neutropenic subject 1331 with AML or MDS pharynx receiving antifungal drug after 21 days prophylaxis by broth microdilution method
Type: functional
Conditions: 504 h

Compound	MIC [µg/mL]
CC[C@@H]([C@H](C)O)n1ncn(-c2ccc(N3CCN(c4ccc(OC[C@@H]5CO[C@@](Cn6cncn6)(c6ccc(F)cc6F)C5)cc4)CC3)cc2)c1=O [POSACONAZOLE]	8 (≈ 11.4 µM)

System: Pichia kudriavzevii
Assay: Antifungal activity against 16 days cultured Candida krusei isolated from neutropenic subject with AML or MDS stool receiving antifungal therapy for 19 days after 6 days of prophylaxis by broth microdilution method
Type: functional
Conditions: not given

Compound	MIC [µg/mL]
CC[C@@H]([C@H](C)O)n1ncn(-c2ccc(N3CCN(c4ccc(OC[C@@H]5CO[C@@](Cn6cncn6)(c6ccc(F)cc6F)C5)cc4)CC3)cc2)c1=O [POSACONAZOLE]	0.25 (≈ 0.357 µM)

System: Nakaseomyces glabratus
Assay: Antifungal activity against Candida glabrata isolated from HSCT recipients with acute or chronic GVHD receiving posaconazole assessed as maximum MIC by broth microdilution method
Type: functional
Conditions: not given

Compound	MIC [µg/mL]
CC[C@@H]([C@H](C)O)n1ncn(-c2ccc(N3CCN(c4ccc(OC[C@@H]5CO[C@@](Cn6cncn6)(c6ccc(F)cc6F)C5)cc4)CC3)cc2)c1=O [POSACONAZOLE]	8

System: Nakaseomyces glabratus
Assay: Antifungal activity against Candida glabrata isolated from neutropenic subject 1187 with AML or MDS stool receiving antifungal drug after 22 days prophylaxis by broth microdilution method
Type: functional
Conditions: 528 h

Compound	MIC [µg/mL]
CC[C@@H]([C@H](C)O)n1ncn(-c2ccc(N3CCN(c4ccc(OC[C@@H]5CO[C@@](Cn6cncn6)(c6ccc(F)cc6F)C5)cc4)CC3)cc2)c1=O [POSACONAZOLE]	4 (≈ 5.71 µM)

System: Pichia kudriavzevii
Assay: Antifungal activity against Candida krusei isolated from HSCT recipients with acute or chronic GVHD prior to initiation of fluconazole therapy assessed as maximum MIC by broth microdilution method
Type: functional
Conditions: not given

Compound	MIC [µg/mL]
CC[C@@H]([C@H](C)O)n1ncn(-c2ccc(N3CCN(c4ccc(OC[C@@H]5CO[C@@](Cn6cncn6)(c6ccc(F)cc6F)C5)cc4)CC3)cc2)c1=O [POSACONAZOLE]	0.5

System: Saccharomyces cerevisiae
Assay: Antifungal activity against Saccharomyces cerevisiae isolated from HSCT recipient 513 with acute or chronic GVHD mouth receiving antifungal drug after 112 days prophylaxis by broth microdilution method
Type: functional
Conditions: not given

Compound	MIC [µg/mL]
CC[C@@H]([C@H](C)O)n1ncn(-c2ccc(N3CCN(c4ccc(OC[C@@H]5CO[C@@](Cn6cncn6)(c6ccc(F)cc6F)C5)cc4)CC3)cc2)c1=O [POSACONAZOLE]	4 (≈ 5.71 µM)

System: Candida tropicalis
Assay: Antifungal activity against 2 days cultured Candida tropicalis isolated from neutropenic subject with AML or MDS pharynx receiving antifungal therapy for 45 days after 24 days of prophylaxis by broth microdilution method
Type: functional
Conditions: not given

Compound	MIC [µg/mL]
CC[C@@H]([C@H](C)O)n1ncn(-c2ccc(N3CCN(c4ccc(OC[C@@H]5CO[C@@](Cn6cncn6)(c6ccc(F)cc6F)C5)cc4)CC3)cc2)c1=O [POSACONAZOLE]	< 0.015

System: Nakaseomyces glabratus
Assay: Antifungal activity against Candida glabrata isolated from HSCT recipients with acute or chronic GVHD prior to initiation of posaconazole therapy by broth microdilution method
Type: functional
Conditions: not given

Compound	MIC50 [µg/mL]	MIC90 [µg/mL]
CC[C@@H]([C@H](C)O)n1ncn(-c2ccc(N3CCN(c4ccc(OC[C@@H]5CO[C@@](Cn6cncn6)(c6ccc(F)cc6F)C5)cc4)CC3)cc2)c1=O [POSACONAZOLE]	0.5 (≈ 0.713 µM)	4 (≈ 5.71 µM)

System: Nakaseomyces glabratus
Assay: Antifungal activity against 1 day cultured Candida glabrata isolated from neutropenic subject with AML or MDS stool receiving antifungal therapy for 25 days after 3 days of prophylaxis by broth microdilution method
Type: functional
Conditions: not given

Compound	MIC [µg/mL]
CC[C@@H]([C@H](C)O)n1ncn(-c2ccc(N3CCN(c4ccc(OC[C@@H]5CO[C@@](Cn6cncn6)(c6ccc(F)cc6F)C5)cc4)CC3)cc2)c1=O [POSACONAZOLE]	4 (≈ 5.71 µM)

System: Candida albicans
Assay: Antifungal activity against Candida albicans isolated from HSCT recipient 301 with acute or chronic GVHD mouth receiving antifungal drug after 114 days prophylaxis by broth microdilution method
Type: functional
Conditions: not given

Compound	MIC [µg/mL]
CC[C@@H]([C@H](C)O)n1ncn(-c2ccc(N3CCN(c4ccc(OC[C@@H]5CO[C@@](Cn6cncn6)(c6ccc(F)cc6F)C5)cc4)CC3)cc2)c1=O [POSACONAZOLE]	0.03 (≈ 0.0428 µM)
